{"source": "paper PMC5584945", "about": "“Evaluation of robenidine analog NCL195 as a novel broad-spectrum antibacterial agent” (PLoS ONE, 2017)", "key": {"S. aureus": {"tested_on": "S. aureus", "test": "MIC, broth micro-dilution (CLSI)", "format": "cell-based, Staphylococcus aureus", "conditions": "for MIC / MIC50 / MIC90: Staphylococcus aureus; for MIC50 / MIC90: S2 Table isolates"}, "S. pneumoniae D39": {"tested_on": "S. pneumoniae D39", "test": "Minimum bactericidal concentration (MBC)", "format": "cell-based", "conditions": "Streptococcus pneumoniae, 99.9% colony count reduction, read-out: MBC"}, "S. aureus Xen29": {"tested_on": "S. aureus Xen29", "test": "Time-dependent killing assay", "format": "cell-based, Staphylococcus aureus", "experimental": "Time kill assays were performed (in duplicate) essentially as described previously with slight modifications. Briefly, a few colonies of luminescent S. pneumoniae strain D39LUX or luminescent S. aureus ATCC 12600 (Xen29) from an overnight HBA were emulsified in normal saline and adjusted to A600 nm = 0.10 (equivalent to approx. 5 × 10^7 c.f.u. per ml) and the bacterial suspension further diluted 1:20 in saline. […] The compounds were serially diluted in 100% DMSO at 100× the final desired concentration and 100 μl of appropriate concentrations added to each 10 ml preparation. Duplicate cultures were incubated at 37°C (+ 5% CO2 for S. pneumoniae D39), with samples withdrawn at 0, 0.5, 1, 2, 4, 6, 8 and 24 h, serially diluted 10-fold and plated on HBA overnight at 37°C (+ 5% CO2 for S. pneumoniae D39) for bacterial enumeration."}, "[1]": {"test": "Kinetic solubility by nephelometry", "format": "physicochemical", "conditions": "kinetic from dmso stock"}, "Caco-2": {"tested_on": "Caco-2", "test": "In vitro cytotoxicity, WST-1", "format": "cell-based", "conditions": "Homo sapiens, 24 h exposure, read-out: IC50 values ± SEM", "excerpt": "(§1) In order to ensure minimal off target mammalian cell cytotoxicity, we assayed NCL812, NCL195 and NCL219 for in vitro cytotoxicity using a panel of adherent mammalian cell lines: Caco-2 (human colorectal adenocarcinoma cell line), HEL 299 (non-cancerous human lung fibroblast cell line), Hep G2 (human hepatocellular carcinoma cell line), MDBK (normal bovine kidney cell line) and MCF7 (human mammary gland adenocarcinoma cell line). Cell lines were maintained in Dulbecco’s Modified Eagle’s Medium (DMEM; […] After 24 h incubation, media was removed, washed once with medium without antibiotics and fresh medium supplemented with 10% (vol/vol) FBS was added. […] Following exposure for 24 h, WST-1 reagent was added to each well at a final concentration of 10%. […] The IC50 value for each compound against each cell line was determined via non-linear regression (three parameters) using GraphPad Prism v6 software. The robustness of assays was confirmed with selected cell lines (Hep G2 and MDBK) seeded onto a 96–well Microwell Nunclon Delta Surface plate (Thermo Scientific Nunc; Cat No: 136101) at 5 × 10^4 cells per well."}, "HEL 299": {"tested_on": "HEL 299", "test": "In vitro cytotoxicity, WST-1", "format": "cell-based", "conditions": "Homo sapiens, 24 h exposure, read-out: IC50 values ± SEM", "excerpt": "as §1"}, "Hep G2 [2]": {"tested_on": "Hep G2", "test": "In vitro cytotoxicity, WST-1", "format": "cell-based", "conditions": "Homo sapiens, HepG2; 24 h exposure; read-out: IC50 values ± SEM", "excerpt": "as §1"}, "MCF7": {"tested_on": "MCF7", "test": "In vitro cytotoxicity, WST-1", "format": "cell-based", "conditions": "Homo sapiens, 24 h exposure, read-out: IC50 values ± SEM", "excerpt": "as §1"}, "MDBK": {"tested_on": "MDBK", "test": "In vitro cytotoxicity, WST-1", "format": "cell-based, bovine", "conditions": "Bos taurus, 24 h exposure, read-out: IC50 values ± SEM", "excerpt": "as §1"}, "Hep G2 [3]": {"tested_on": "Hep G2", "test": "Real-time cell viability, RealTime-Glo MT", "format": "cell-based, human", "conditions": "2 or 8 μg/ml, up to 20 h post-treatment"}}, "note": "Where two headings read alike, the source gives them in different places."}
{"smiles": "Cc1ccc(/C=N/Nc2cc(N/N=C/c3ccc(C)cc3)nc(N)n2)cc1", "note": "[NCL195, 4,6-bis(2-((E)-4-methylbenzylidene)hydrazinyl)pyrimidin-2-amine]", "values": [{"measurement": "Fold increase in MIC in the presence of serum", "setting": "S. aureus; S. aureus 49775, human, horse or mouse serum", "result": 4, "unit": "fold"}, {"measurement": "MIC", "setting": "S. aureus; ATCC 12600 / MSSA, ATCC12600 [Xen29] (MSSA), 10% FBS", "result": 4, "unit": "µg/mL"}, {"measurement": "MIC", "setting": "S. aureus; ATCC 12600 / MSSA, ATCC12600 [Xen29] (MSSA), absence of FBS", "result": 1, "unit": "µg/mL"}, {"measurement": "MIC", "setting": "S. aureus; ATCC 29213 / MSSA, ATCC29213 MSSA (ST5), 10% FBS, read-out: MIC", "result": 8, "unit": "µg/mL"}, {"measurement": "MIC", "setting": "S. aureus; ATCC 29213 / MSSA, ATCC29213 MSSA (ST5), absence of FBS, read-out: MIC", "result": 2, "unit": "µg/mL"}, {"measurement": "MIC", "setting": "S. aureus; ATCC 49775 / MSSA, ATCC 49775 (MSSA), 10% FBS, read-out: MIC", "result": 8, "unit": "µg/mL"}, {"measurement": "MIC", "setting": "S. aureus; ATCC 49775 / MSSA, ATCC 49775 (MSSA), absence of FBS, read-out: MIC", "result": 2, "unit": "µg/mL"}, {"measurement": "MIC", "setting": "S. aureus; IRISH 1 – HA-EMRSA (ST8), 10% FBS, read-out: MIC", "result": 8, "unit": "µg/mL"}, {"measurement": "MIC", "setting": "S. aureus; IRISH 1 – HA-EMRSA (ST8), absence of FBS, read-out: MIC", "result": 2, "unit": "µg/mL"}, {"measurement": "MIC", "setting": "S. aureus; IRISH 2 – HA-EMRSA (ST8), 10% FBS, read-out: MIC", "result": 4, "unit": "µg/mL"}, {"measurement": "MIC", "setting": "S. aureus; IRISH 2 – HA-EMRSA (ST8), absence of FBS, read-out: MIC", "result": 1, "unit": "µg/mL"}, {"measurement": "MIC", "setting": "S. aureus; MRSA / USA300, USA 300 - MRSA (ST8), 10% FBS, read-out: MIC", "result": 8, "unit": "µg/mL"}, {"measurement": "MIC", "setting": "S. aureus; MRSA / USA300, USA 300 - MRSA (ST8), absence of FBS, read-out: MIC", "result": 2, "unit": "µg/mL"}, {"measurement": "MIC", "setting": "S. aureus; MRSA, AUS2-MRSA (ST239), 10% FBS, read-out: MIC", "result": 8, "unit": "µg/mL"}, {"measurement": "MIC", "setting": "S. aureus; MRSA, AUS2-MRSA (ST239), absence of FBS, read-out: MIC", "result": 2, "unit": "µg/mL"}, {"measurement": "MIC", "setting": "S. aureus; MRSA, AUS3-MRSA (ST239), 10% FBS, read-out: MIC", "result": 4, "unit": "µg/mL"}, {"measurement": "MIC", "setting": "S. aureus; MRSA, AUS3-MRSA (ST239), absence of FBS, read-out: MIC", "result": 1, "unit": "µg/mL"}, {"measurement": "MIC", "setting": "S. aureus; MRSA, Classic–HA-MRSA (ST250), 10% FBS, read-out: MIC", "result": 8, "unit": "µg/mL"}, {"measurement": "MIC", "setting": "S. aureus; MRSA, Classic–HA-MRSA (ST250), absence of FBS, read-out: MIC", "result": 2, "unit": "µg/mL"}, {"measurement": "MIC", "setting": "S. aureus; MRSA, NY JAPAN – HA MRSA (ST5), 10% FBS, read-out: MIC", "result": 4, "unit": "µg/mL"}, {"measurement": "MIC", "setting": "S. aureus; MRSA, NY JAPAN – HA MRSA (ST5), absence of FBS, read-out: MIC", "result": 1, "unit": "µg/mL"}, {"measurement": "MIC", "setting": "S. aureus; MRSA, ST398–CA-MRSA-V (ST398), 10% FBS, read-out: MIC", "result": 8, "unit": "µg/mL"}, {"measurement": "MIC", "setting": "S. aureus; MRSA, ST398–CA-MRSA-V (ST398), absence of FBS, read-out: MIC", "result": 2, "unit": "µg/mL"}, {"measurement": "MIC", "setting": "S. aureus; MRSA, WA2–CA-MRSA (ST78), 10% FBS, read-out: MIC", "result": 4, "unit": "µg/mL"}, {"measurement": "MIC", "setting": "S. aureus; MRSA, WA2–CA-MRSA (ST78), absence of FBS, read-out: MIC", "result": 1, "unit": "µg/mL"}, {"measurement": "MIC", "setting": "S. aureus; MRSA, WA3–CA-MRSA (ST5), 10% FBS, read-out: MIC", "result": 4, "unit": "µg/mL"}, {"measurement": "MIC", "setting": "S. aureus; MRSA, WA3–CA-MRSA (ST5), absence of FBS, read-out: MIC", "result": 1, "unit": "µg/mL"}, {"measurement": "MIC", "setting": "S. aureus; MRSA, WA84–CA-MRSA (ST45), 10% FBS, read-out: MIC", "result": 4, "unit": "µg/mL"}, {"measurement": "MIC", "setting": "S. aureus; MRSA, WA84–CA-MRSA (ST45), absence of FBS, read-out: MIC", "result": 1, "unit": "µg/mL"}, {"measurement": "MIC50", "setting": "S. aureus; 10% FBS", "result": 8, "unit": "µg/mL"}, {"measurement": "MIC90", "setting": "S. aureus; 10% FBS", "result": 8, "unit": "µg/mL"}, {"measurement": "MIC50", "setting": "S. aureus; absence of FBS", "result": 2, "unit": "µg/mL"}, {"measurement": "MIC90", "setting": "S. aureus; absence of FBS", "result": 2, "unit": "µg/mL"}, {"measurement": "MIC", "setting": "S. aureus; TAIWAN PVL+ – CA-cMRSA (ST59), 10% FBS, read-out: MIC", "result": 4, "unit": "µg/mL"}, {"measurement": "MIC", "setting": "S. aureus; TAIWAN PVL+ – CA-cMRSA (ST59), absence of FBS, read-out: MIC", "result": 1, "unit": "µg/mL"}, {"measurement": "MIC", "setting": "S. aureus; UK 15 PVL+ – HA-EMRSA (ST22), 10% FBS, read-out: MIC", "result": 8, "unit": "µg/mL"}, {"measurement": "MIC", "setting": "S. aureus; UK 15 PVL+ – HA-EMRSA (ST22), absence of FBS, read-out: MIC", "result": 2, "unit": "µg/mL"}, {"measurement": "MIC", "setting": "S. aureus; UK 15 – HA-EMRSA (ST22), 10% FBS, read-out: MIC", "result": 8, "unit": "µg/mL"}, {"measurement": "MIC", "setting": "S. aureus; UK 15 – HA-EMRSA (ST22), absence of FBS, read-out: MIC", "result": 2, "unit": "µg/mL"}, {"measurement": "MIC", "setting": "S. aureus; UK 16 – HA- EMRSA (ST36), 10% FBS, read-out: MIC", "result": 4, "unit": "µg/mL"}, {"measurement": "MIC", "setting": "S. aureus; UK 16 – HA- EMRSA (ST36), absence of FBS, read-out: MIC", "result": 1, "unit": "µg/mL"}, {"measurement": "MIC", "setting": "S. aureus; UK 17 – HA-EMRSA (ST247), 10% FBS, read-out: MIC", "result": 8, "unit": "µg/mL"}, {"measurement": "MIC", "setting": "S. aureus; UK 17 – HA-EMRSA (ST247), absence of FBS, read-out: MIC", "result": 2, "unit": "µg/mL"}, {"measurement": "MBC", "setting": "S. pneumoniae D39", "result": 8, "unit": "µg/mL"}, {"measurement": "Time to clear all Xen29", "setting": "S. aureus Xen29; 2× MIC", "result": 6, "unit": "h"}, {"measurement": "Time to clear all Xen29", "setting": "S. aureus Xen29; 4× MIC", "result": 6, "unit": "h"}, {"measurement": "Regrowth after 24 h", "setting": "S. aureus Xen29; at the concentrations tested (2× and 4× MIC)", "result": "some S. aureus regrowth was observed"}, {"measurement": "solubility", "setting": "[1]; pH 2.0", "result": "3.1 to 6.3", "unit": "µg/mL"}, {"measurement": "solubility", "setting": "[1]; pH 6.5", "result": "< 1.6", "unit": "µg/mL"}, {"measurement": "IC50", "setting": "Caco-2", "result": "12.8 ± 0.1", "unit": "µg/mL"}, {"measurement": "IC50", "setting": "HEL 299", "result": "10.9 ± 0.2", "unit": "µg/mL"}, {"measurement": "IC50", "setting": "Hep G2 [2]", "result": "12 ± 0.1", "unit": "µg/mL"}, {"measurement": "IC50", "setting": "MCF7", "result": "40.1 ± 0.2", "unit": "µg/mL"}, {"measurement": "IC50", "setting": "MDBK", "result": "17.3 ± 0.2", "unit": "µg/mL"}, {"measurement": "Effect on cell viability (real-time)", "setting": "Hep G2 [3]", "result": "no measurable effect on cell viability"}]}
